Measured values as given in the supplement of paper PMC5908809.

What was measured:
[1] = system: normal NK cells expanded with K562-aAPC; experiment: percent inhibition of viability; higher = more inhibition; conditions: 72 h, IL-2 2.5 ng/mL
Description: (§1)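 Drug sensitivity and resistance testing on K562-aAPC-expanded normal NK cells: 5 concentrations (10-fold steps over a 10,000-fold range), 72 h at 37 °C, viability by CellTiter-Glo normalised to DMSO and benzethonium chloride controls; DSS from the fitted curve.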

[2] = system: DERL-7 (IL-2 2.5 ng/mL); experiment: as above; conditions: 72 h
[3] = system: IMC-1 (IL-2 20 ng/mL); experiment: as above; conditions: 72 h
[4] = system: KAI3 (IL-2 2.5 ng/mL); experiment: as above; conditions: 72 h
[5] = system: KHYG-1 (IL-2 2.5 ng/mL); experiment: as above; conditions: 72 h
[6] = system: NK-92 (IL-2 2.5 ng/mL); experiment: as above; conditions: 72 h
[7] = system: NK-YS (IL-2 2.5 ng/mL); experiment: as above; conditions: 72 h
[8] = system: NKL (IL-2 2.5 ng/mL); experiment: as above; conditions: 72 h
[9] = system: SNK-6 (IL-2 2.5 ng/mL); experiment: as above; conditions: 72 h
[10] = system: YT (IL-2 2.5 ng/mL); experiment: as above; conditions: 72 h
[11] = system: normal primary NK cells, pool 1 (3 donors) (IL-2 2.5 ng/mL); experiment: as above; conditions: 72 h
[12] = system: normal primary NK cells, pool 1 (3 donors), resting (IL-2 0 ng/mL); experiment: as above; conditions: 72 h
[13] = system: normal primary NK cells, pool 2 (3 donors) (IL-2 2.5 ng/mL); experiment: as above; conditions: 72 h
[14] = system: normal primary NK cells, pool 3 (3 donors) (IL-2 2.5 ng/mL); experiment: as above; conditions: 72 h
[15] = system: normal NK cells expanded with K562-aAPC; experiment: drug sensitivity score (DSS) (DSS units); higher = more sensitive; extreme values may be limits of the assay; conditions: 72 h; IL-2 2.5 ng/mL
Description: as §1

[16] = system: DERL-7 (IL-2 2.5 ng/mL); experiment: as above; conditions: 72 h
[17] = system: IMC-1 (IL-2 20 ng/mL); experiment: as above; conditions: 72 h
[18] = system: KAI3 (IL-2 2.5 ng/mL); experiment: as above; conditions: 72 h
[19] = system: KHYG-1 (IL-2 2.5 ng/mL); experiment: as above; conditions: 72 h
[20] = system: NK-92 (IL-2 2.5 ng/mL); experiment: as above; conditions: 72 h
[21] = system: NK-YS (IL-2 2.5 ng/mL); experiment: as above; conditions: 72 h
[22] = system: NKL (IL-2 2.5 ng/mL); experiment: as above; conditions: 72 h
[23] = system: SNK-6 (IL-2 2.5 ng/mL); experiment: as above; conditions: 72 h
[24] = system: YT (IL-2 2.5 ng/mL); experiment: as above; conditions: 72 h
[25] = system: normal primary NK cells, pool 1 (3 donors) (IL-2 2.5 ng/mL); experiment: as above; conditions: 72 h
[26] = system: normal primary NK cells, pool 1 (3 donors), resting (IL-2 0 ng/mL); experiment: as above; conditions: 72 h
[27] = system: normal primary NK cells, pool 2 (3 donors) (IL-2 2.5 ng/mL); experiment: as above; conditions: 72 h
[28] = system: normal primary NK cells, pool 3 (3 donors) (IL-2 2.5 ng/mL); experiment: as above; conditions: 72 h

CC/C(=C(\c1ccccc1)c1ccc(OCCN(C)C)cc1)c1ccccc1 [Tamoxifen] (max concentration tested 10000 nM)
percent inhibition of viability [%]
Conditions	1 nM	10 nM	100 nM	1000 nM	10000 nM
[1]	-7.94	-6.09	-3.11	5.82	37.2
[2]	1.51	5.51	6.94	12.4	58.1
[3]	2.26	1.26	1.8	5.99	14.7
[4]	-0.42	-4.09	3.87	8.65	100
[5]	-5.57	-6.4	1.61	13.7	44.6
[6]	-11.7	-1.59	-5.3	2.31	75.2
[7]	-7.45	-5.92	-3.79	2.63	33.2
[8]	-6.42	-9.93	0.08	21.2	73.4
[9]	-6.58	-17.5	-11.6	-6.09	51.8
[10]	-0.53	-2.4	0.91	3.43	58.4
[11]	1.45	8.11	7.67	12.3	89.6
[12]	2.3	22	15.1	20.6	90.1
[13]	-3.62	2.15	-3.66	4.91	68.8
[14]	-1.03	0.09	5.67	-1.54	30.3

Conditions	drug sensitivity score
[15]	2.77
[16]	5.15
[17]	0.37
[18]	6.93
[19]	4.33
[20]	4.46
[21]	1.92
[22]	7.22
[23]	2.32
[24]	3.65
[25]	7.04
[26]	8.03
[27]	4.53
[28]	1.21

C[C@@H](C(=O)O)c1ccc(-c2ccccc2)c(F)c1 [Tarenflurbil] (max concentration tested 10000 nM)
percent inhibition of viability [%]
Conditions	1 nM	10 nM	100 nM	1000 nM	10000 nM
[1]	-6.17	-4.88	-3.95	0.95	3.26
[2]	4.46	2.02	-0.14	2.03	-3.24
[3]	-1.05	0.62	-1.4	-6.55	2.74
[4]	-7.87	-7.47	3.52	11.2	23.6
[5]	-3.32	-5.74	0.55	-0.63	6.21
[6]	-0.98	-4.75	-2.63	14.7	23.1
[7]	-4.2	-2.88	4.93	1.37	11.5
[8]	-0.03	-4.97	19.8	21.7	16.2
[9]	-1.12	-28.7	-23.7	-16.9	14.1
[10]	-2.12	-10.1	2.14	4.49	14.9
[11]	2	12.8	9.24	3.23	7.48
[12]	-0.07	18.2	4.52	11.8	8.75
[13]	-7.01	3.47	9.98	6.83	1.08
[14]	-14.1	-0.87	-2.01	-2.07	2.43

Conditions	drug sensitivity score
[15]	0
[16]	0
[17]	0
[18]	1.72
[19]	0
[20]	2.36
[21]	0.07
[22]	5.13
[23]	0.04
[24]	0.47
[25]	0
[26]	0.07
[27]	0
[28]	0

O=c1sn(-c2cccc3ccccc23)c(=O)n1Cc1ccccc1 [Tideglusib] (max concentration tested 3000 nM)
percent inhibition of viability [%]
Conditions	0.3 nM	3 nM	30 nM	300 nM	3000 nM
[1]	-6.95	-7.17	-3.75	-3.95	10.8
[2]	0.33	8.56	5.78	9.73	-4.19
[3]	-9.15	-4.57	-3.56	-1.74	14.2
[4]	4.52	0.51	-8.06	2.48	28.9
[5]	0.24	-8.35	-8.09	-2.62	8.61
[6]	-5	-12.7	-13.7	-11.8	-1.4
[7]	-1.28	-6.26	-8.67	-1.58	10.1
[8]	-0.96	-13.4	-11.3	4.69	13.7
[9]	-1.78	4.09	-8.27	7.39	0.93
[10]	0.91	-5.07	-4.89	-0.66	12.1
[11]	-1.89	-5.16	15.6	9.54	6.41
[12]	2.26	8.84	16.1	20.2	27.7
[13]	-9.87	-9.74	-4.05	-1.59	6.8
[14]	-6.37	-9.25	6.54	6.09	5.7

Conditions	drug sensitivity score
[15]	0
[16]	0
[17]	0.12
[18]	1.59
[19]	0
[20]	0
[21]	0
[22]	0.46
[23]	0
[24]	0.04
[25]	0.12
[26]	4.87
[27]	0
[28]	0

O=C1NC(=O)[C@@H](c2cn3c4c(cccc24)CCC3)[C@@H]1c1c[nH]c2ccccc12 [Tivantinib] (max concentration tested 1000 nM)
percent inhibition of viability [%]
Conditions	0.1 nM	1 nM	10 nM	100 nM	1000 nM
[1]	4.66	1	5.6	5.87	61
[2]	1.35	4.31	5.17	-5.73	98.9
[3]	-2.06	-7.71	1.1	0.97	97.6
[4]	-4.06	0.6	3.77	11.4	52.4
[5]	0.89	-0.35	5.11	11.5	99.1
[6]	-9.63	-0.01	-3.88	39	94.7
[7]	0.78	-2.63	4.33	31.1	73.6
[8]	-20.3	-13.1	-9.15	-9.89	84.3
[9]	9.19	0.24	0.91	70.4	83.3
[10]	-0.05	-2.14	2.38	8.83	93.5
[11]	-0.92	0.64	-7.52	-8.4	6.83
[12]	-0.8	10.8	3.09	6.28	8.64
[13]	-7.65	-12.3	-6.73	13.4	23.2
[14]	-12.8	-3.79	-11.9	5.81	17.4

Conditions	drug sensitivity score
[15]	4.27
[16]	5.07
[17]	5.57
[18]	4.63
[19]	7.4
[20]	10.4
[21]	7.74
[22]	4.03
[23]	12.9
[24]	6.61
[25]	0
[26]	0
[27]	2.26
[28]	1

NC(=S)N/N=C/c1ncccc1N [Triapine] (max concentration tested 10000 nM)
percent inhibition of viability [%]
Conditions	1 nM	10 nM	100 nM	1000 nM	10000 nM
[1]	-2.67	-8.24	-2.71	55	64.6
[2]	-1.06	2.72	-5.08	-8.15	97.7
[3]	-5.06	0.28	-5.51	-12.1	98
[4]	-5.83	4.79	3.83	32.7	93.6
[5]	-1.53	-0.9	-1.65	73.7	97.9
[6]	-11.5	-5.21	-2.75	61.1	90.6
[7]	-1.66	-1.59	-1.57	26.8	95.1
[8]	-2.42	-1.96	-11.9	-7.16	92.3
[9]	4.11	13	14.7	-6.98	89.7
[10]	0.85	0.16	-3.39	-10	74.8
[11]	-6.36	-11	-8.82	4.76	57.7
[12]	-6.48	-20.7	-16.6	22.7	85.8
[13]	-9.87	-3.04	-3.45	8.38	40
[14]	-6.53	-8.38	-5.12	15.8	38.7

Conditions	drug sensitivity score
[15]	10.1
[16]	4.86
[17]	4.69
[18]	9.5
[19]	13.8
[20]	12.1
[21]	9.25
[22]	4.61
[23]	4.48
[24]	3.49
[25]	3.86
[26]	8.2
[27]	3.34
[28]	4.03
